Experimental data: patent US10314820B2, “Imidazole-based heterocyclic compounds” (priority 2014, dated 2019)

Columns and labels:
[1] = test system: Escherichia coli TolC mutant strain ΔtolC; format: cell-based; conditions: Table BB; MIC score
[2] = test system: Human hepatocytes (HepaRG cells); experiment: Human cytotoxicity assay in vitro (CellTiter-Glo), hepatocytes; format: cell-based; conditions: hepatocyte cytotoxicity score; 24 h exposure
[3] = test system: Human keratinocytes (HaCaT cells); experiment: Human cytotoxicity assay in vitro (CellTiter-Glo), keratinocytes; format: cell-based; conditions: keratinocyte cytotoxicity score; 24 h exposure
[4] = test system: vancomycin-resistant Staphylococcus aureus (from MRSA, COL); experiment: microbe, parasite or virus in culture; format: cell-based; conditions: Table BB; MIC score; vancomycin-resistant MRSA
[5] = test system: linezolid-resistant Staphylococcus aureus (from MRSA, COL); experiment: microbe, parasite or virus in culture; format: cell-based; conditions: Table BB; MIC score; linezolid-resistant MRSA
[6] = test system: Enterococcus faecium (AGR15, ATCCBAA-2127); experiment: Broth microdilution MIC assay, Enterococcus faecium; format: cell-based; conditions: Table BB; MIC score
[7] = test system: moenomycin-resistant Staphylococcus aureus (from MRSA, COL); conditions: Table BB, MIC score
[8] = test system: Streptococcus pneumoniae (Chester, ATCC49619); experiment: Broth microdilution MIC assay, Streptococcus pneumoniae; format: cell-based; conditions: Table AA; MIC score
[9] = test system: Staphylococcus aureus MSSA (Newman); experiment: Broth microdilution MIC assay, MSSA; format: cell-based; conditions: Table AA; MIC score
[10] = test system: Staphylococcus aureus MRSA (COL); format: cell-based; conditions: Table AA; MIC score
[11] = test system: platensimycin-resistant Staphylococcus aureus (from MRSA, COL); experiment: microbe, parasite or virus in culture; format: cell-based; conditions: read-out: MIC for the resistant strain
[12] = test system: MRSA (COL) resistant to triclosan; experiment: microbe, parasite or virus in culture; conditions: Staphylococcus aureus, read-out: MIC values of resistant strains

SMILES	cytotoxicity cell line H [2]	cytotoxicity cell line K [3]	antibacterial activity MRSA strains with additional resistance to V [4]	antibacterial activity MRSA strains with additional resistance to L [5]	antibacterial activity EFm [6]	antibacterial activity MRSA strains with additional resistance to M [7]	other results
Cc1[nH]c(-c2ccc(-c3ccccc3F)s2)nc1-c1ccccc1 [Compound 15]	1 (compounds not causing a loss of viability at concentrations between 25 and 50 μM)	1 (compounds causing less than 50% inhibition of cell viability at 50 μM)	–	–	–	–	antibacterial activity EC Δ [1]: 1 (the compound has an MIC100 of 20-50 μg/ml or an MIC50 of <10 μg/ml)
Cc1nc(-c2ccc(-c3ccccc3OC(F)(F)F)o2)[nH]c1-c1ccccc1Cl [Compound 19]	3	0 (compounds not causing loss of cell viability at concentrations of 50 μM or higher)	1 (the compound has an MIC100 of 20-50 μg/ml or an MIC50 of <10 μg/ml)	3 (the compound has an MIC100 of 3-10 μg/ml)	–	–	–
Cc1[nH]c(-c2ccc(-c3ccccc3OC(F)(F)F)o2)nc1-c1ccc(F)cc1 [Compound 23, 4-(4-Fluoro-phenyl)-5-methyl-2-[5-(2-trifluoromethoxy-phenyl)-furan-2-yl]-1H-imidazole]	3	2 (compounds causing>50% inhibition of cell viability at 25 μM)	–	–	1 (the compound has an MIC100 of 20-50 μg/ml or an MIC50 of <10 μg/ml)	–	–
Cc1[nH]c(-c2ccc(-c3ccccc3OC(F)(F)F)o2)nc1-c1ccc(Cl)cc1 [Compound 24]	2	2 (compounds causing>50% inhibition of cell viability at 25 μM)	4 (the compound has an MIC of 1 μg/ml to 3 μg/ml for preventing bacterial growth 100% (MIC100))	3 (the compound has an MIC100 of 3-10 μg/ml)	–	3 (the compound has an MIC100 of 3-10 μg/ml)	–
Cc1[nH]c(-c2ccc(-c3ccc(Cl)c(C(F)(F)F)c3)o2)nc1-c1ccc(F)cc1 [Compound 42]	1 (compounds not causing a loss of viability at concentrations between 25 and 50 μM)	3 (compounds causing more than 50% inhibition of cell viability at 10 μM)	4 (the compound has an MIC of 1 μg/ml to 3 μg/ml for preventing bacterial growth 100% (MIC100))	4 (the compound has an MIC of 1 μg/ml to 3 μg/ml for preventing bacterial growth 100% (MIC100))	1 (the compound has an MIC100 of 20-50 μg/ml or an MIC50 of <10 μg/ml)	4 (the compound has an MIC of 1 μg/ml to 3 μg/ml for preventing bacterial growth 100% (MIC100))	–
Cc1nc(-c2ccc(-c3ccc(Cl)c(OC(F)(F)F)c3)o2)[nH]c1-c1ccc(Cl)cc1 [Compound 44]	2	–	–	–	1 (the compound has an MIC100 of 20-50 μg/ml or an MIC50 of <10 μg/ml)	–	–
Cc1[nH]c(-c2ccc(-c3ccc(C(F)(F)F)cc3)o2)nc1-c1ccc(Cl)cc1 [Compound 47]	1 (compounds not causing a loss of viability at concentrations between 25 and 50 μM)	2 (compounds causing>50% inhibition of cell viability at 25 μM)	–	–	1 (the compound has an MIC100 of 20-50 μg/ml or an MIC50 of <10 μg/ml)	–	–
Cc1[nH]c(-c2ccc(-c3ccc(C(F)(F)F)c(Cl)c3)o2)nc1-c1ccc(F)cc1 [Compound 49]	3	2 (compounds causing>50% inhibition of cell viability at 25 μM)	3 (the compound has an MIC100 of 3-10 μg/ml)	2 (the compound has an MIC100 of 11-20 μg/ml)	1 (the compound has an MIC100 of 20-50 μg/ml or an MIC50 of <10 μg/ml)	3 (the compound has an MIC100 of 3-10 μg/ml)	–
Cc1[nH]c(-c2ccc(-c3ccc(OC(F)(F)F)c(Cl)c3)o2)nc1-c1ccc(Cl)cc1 [Compound 50]	1 (compounds not causing a loss of viability at concentrations between 25 and 50 μM)	1 (compounds causing less than 50% inhibition of cell viability at 50 μM)	–	–	–	–	Antibacterial activity Streptococcus pneumoniae [8]: 3 (the compound has an MIC100 of 2-5 μg/ml); Antibacterial activity Staphylococcus aureus (MSSA) [9]: 3 (the compound has an MIC100 of 3-10 μg/ml); Antibacterial activity Staphylococcus aureus (MRSA) [10]: 2 (the compound has an MIC100 of 11-20 μg/ml)
FC(F)(F)Oc1ccccc1-c1ccc(-c2nc(Cl)c(-c3ccccc3)[nH]2)o1 [Compound 64]	3	3 (compounds causing more than 50% inhibition of cell viability at 10 μM)	4 (the compound has an MIC of 1 μg/ml to 3 μg/ml for preventing bacterial growth 100% (MIC100))	–	–	4 (the compound has an MIC of 1 μg/ml to 3 μg/ml for preventing bacterial growth 100% (MIC100))	–
Cc1ccccc1-c1c[nH]c(-c2ccc(-c3ccccc3OC(F)(F)F)o2)n1 [Compound 66]	3	1 (compounds causing less than 50% inhibition of cell viability at 50 μM)	3 (the compound has an MIC100 of 3-10 μg/ml)	4 (the compound has an MIC of 1 μg/ml to 3 μg/ml for preventing bacterial growth 100% (MIC100))	–	3 (the compound has an MIC100 of 3-10 μg/ml)	–
Cc1ccccc1-c1cnc(-c2ccc(-c3ccccc3C(F)(F)F)o2)[nH]1 [Compound 69]	2	1 (compounds causing less than 50% inhibition of cell viability at 50 μM)	–	–	–	–	antibacterial activity EC Δ [1]: 1 (the compound has an MIC100 of 20-50 μg/ml or an MIC50 of <10 μg/ml)
CN(C)Cc1[nH]c(-c2ccc(-c3ccccc3C(F)(F)F)o2)nc1-c1ccccc1 [Compound 70]	3	2 (compounds causing>50% inhibition of cell viability at 25 μM)	1 (the compound has an MIC100 of 20-50 μg/ml or an MIC50 of <10 μg/ml)	1 (the compound has an MIC100 of 20-50 μg/ml or an MIC50 of <10 μg/ml)	2 (the compound has an MIC100 of 11-20 μg/ml)	1 (the compound has an MIC100 of 20-50 μg/ml or an MIC50 of <10 μg/ml)	Antibacterial activity Streptococcus pneumoniae [8]: 3 (the compound has an MIC100 of 2-5 μg/ml); Antibacterial activity Staphylococcus aureus (MSSA) [9]: 1 (the compound has an MIC100 of 20-50 μg/ml or an MIC50 of <10 μg/ml); Antibacterial activity Staphylococcus aureus (MRSA) [10]: 1 (the compound has an MIC100 of 20-50 μg/ml or an MIC50 of <10 μg/ml); antibacterial activity EC Δ [1]: 3 (the compound has an MIC100 of 3-10 μg/ml)
Fc1ccc(-c2ccc(-c3nc4ccccc4[nH]3)o2)cc1 [Compound 121]	–	–	–	–	–	–	Antibacterial activity Streptococcus pneumoniae [8]: inactive; Antibacterial activity Staphylococcus aureus (MRSA) [10]: inactive
Fc1ccc(-c2ccc(-c3nc4ccccc4[nH]3)o2)c(F)c1 [Compound 122]	–	–	–	–	–	–	Antibacterial activity Streptococcus pneumoniae [8]: inactive; Antibacterial activity Staphylococcus aureus (MRSA) [10]: inactive
CC12C[C@@]34C=CC(=O)[C@@](C)(CCC(=O)Nc5c(O)ccc(C(=O)O)c5O)C3[C@H](CC1C4)O2 (some centres unmarked) [platensimycin]	–	–	–	–	–	–	MIC [11]: > 10 µg/mL
Oc1cc(Cl)ccc1Oc1ccc(Cl)cc1Cl [triclosan]	–	–	–	–	–	–	MIC [12]: > 20 µg/mL
